Like-named read-outs stand apart in the source and are kept apart here.
Legend:
Format in all cases: in vivo
[1] = system: Eiysiphe graminis f. sp. tritici; test: Test A: wheat powdery mildew, preventive spray on wheat seedlings; conditions: for Test A disease control rating: wheat powdery mildew; for Test A disease control rating (100 = 100% disease control, 0 = no disease control): wheat seedlings sprayed to run-off, inoculated the following day, rating relative to controls, unmarked compounds (standard test rate)
In short: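 Compounds (3% acetone, 250 ppm Trem 014) sprayed to run-off on wheat seedlings, inoculated next day with spore dust. Incubated 7 days at 20° C before disease rating, 0–100% control relative to untreated controls.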

Phytophthora infestans = conditions: for Test D disease control rating: tomato late blight; for Test D disease control rating (100 = 100% disease control, 0 = no disease control): tomato seedlings sprayed to run-off, inoculated the following day, rating relative to controls, unmarked compounds (standard test rate)
Botrytis cinerea = test: Test E: gray mold, preventive spray on cucumber seedlings; conditions: for Test E disease control rating: gray mold on cucumber; for Test E disease control rating (100 = 100% disease control, 0 = no disease control): cucumber seedlings sprayed to run-off, inoculated the following day, rating relative to controls, unmarked compounds (standard test rate)
In short: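 Compounds in 3% acetone were suspended with 250 ppm Trem 014 surfactant and sprayed to run-off on cucumber seedlings. B. cinerea spores were inoculated next day, then 48 h saturated humidity at 20° C and 5 days at 20° C. Disease control rated 0–100% versus controls.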

Puccinia recondita = test: Test B: wheat leaf rust, preventive spray on wheat seedlings; conditions: for Test B disease control rating: wheat leaf rust; for Test B disease control rating (100 = 100% disease control, 0 = no disease control): wheat seedlings sprayed to run-off, inoculated the following day, rating relative to controls, unmarked compounds (standard test rate)
In short: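 Wheat seedlings were sprayed to run-off with compound (3% acetone, 250 ppm Trem 014), then inoculated with P. recondita spores the next day. They were held 24 h saturated at 20 °C, then 6 days at 20 °C. Ratings are 0–100% disease control versus controls.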

Pyricularia oryzae = conditions: for Test C disease control rating: rice blast; for Test C disease control rating (100 = 100% disease control, 0 = no disease control): rice seedlings sprayed to run-off, inoculated the following day, rating relative to controls, unmarked compounds (standard test rate)
[2] = 100 = 100% disease control, 0 = no control relative to controls, unmarked entries (standard test concentration)
[3] = 100 = 100% disease control, 0 = no control, unmarked entries (standard test concentration)

## C=CCc1ccccc1OCC(C)NC(=O)C(C#N)C(C)(C)C (mixture of isomers) [25b]
[1]; [2]
  Test A disease control rating: 63%
Phytophthora infestans; [3]
  Test D disease control rating: 24%
Botrytis cinerea; [3]
  Test E disease control rating: 0%
Puccinia recondita; [3]
  Test B disease control rating: 0%
Pyricularia oryzae; [3]
  Test C disease control rating: 97%

## CCC1(C(=O)NC(C)COc2c(Cl)cccc2C#N)C(C)C1(Cl)Cl (mixture of isomers) [compound 260]
[1]
  Test A disease control rating (100 = 100% disease control, 0 = no disease control): 0%
Phytophthora infestans
  Test D disease control rating (100 = 100% disease control, 0 = no disease control): 24%
Botrytis cinerea
  Test E disease control rating (100 = 100% disease control, 0 = no disease control): 83%
Puccinia recondita
  Test B disease control rating (100 = 100% disease control, 0 = no disease control): 0%
Pyricularia oryzae
  Test C disease control rating (100 = 100% disease control, 0 = no disease control): 74%

## CCC1(C(=O)NC(C)COc2ccccc2OC(F)(F)C(F)F)C(C)C1(Cl)Cl (mixture of isomers) [compound 90]
[1]; [2]
  Test A disease control rating: 84%
Phytophthora infestans; [3]
  Test D disease control rating: 0%
Botrytis cinerea; [3]
  Test E disease control rating: 0%
Puccinia recondita; [3]
  Test B disease control rating: 0%
Pyricularia oryzae; [3]
  Test C disease control rating: 32%

## CCC1(C(=O)NC(C)COc2cccc(Br)c2)C(C)C1(Cl)Cl (mixture of isomers) [85b]
[1]; tested at 40 ppm
  Test A disease control rating: 0%
Phytophthora infestans; tested at 40 ppm
  Test D disease control rating: 0%
Botrytis cinerea; tested at 40 ppm
  Test E disease control rating: 0%
Puccinia recondita; tested at 40 ppm
  Test B disease control rating: 0%
Pyricularia oryzae; tested at 40 ppm
  Test C disease control rating: 53%

## CCC1(C(=O)NC(C)COc2ccc(Br)cc2)C(C)C1(Cl)Cl (mixture of isomers) [86b]
[1]; tested at 40 ppm
  Test A disease control rating: 52%
Phytophthora infestans; tested at 40 ppm
  Test D disease control rating: 28%
Botrytis cinerea; tested at 40 ppm
  Test E disease control rating: 0%
Puccinia recondita; tested at 40 ppm
  Test B disease control rating: 0%
Pyricularia oryzae; tested at 40 ppm
  Test C disease control rating: 0%

## CCC1(C(=O)NC(C)COc2cccc(I)c2)C(C)C1(Cl)Cl (mixture of isomers) [compound 88]
[1]; tested at 40 ppm
  Test A disease control rating: 52%
Phytophthora infestans; tested at 40 ppm
  Test D disease control rating: 0%
Botrytis cinerea; tested at 40 ppm
  Test E disease control rating: 0%
Puccinia recondita; tested at 40 ppm
  Test B disease control rating: 0%
Pyricularia oryzae; tested at 40 ppm
  Test C disease control rating: 0%

## C=CCc1ccccc1OCC(C)NC(=O)C1(CC)C(C)C1(Cl)Cl (stereo not drawn) [101b]
[1]; tested at 40 ppm
  Test A disease control rating: 0%
Phytophthora infestans; tested at 40 ppm
  Test D disease control rating: 0%
Botrytis cinerea; tested at 40 ppm
  Test E disease control rating: 0%
Puccinia recondita; tested at 40 ppm
  Test B disease control rating: 0%
Pyricularia oryzae; tested at 40 ppm
  Test C disease control rating: 0%

## CCCC(C#N)C(=O)NC(C)C(Oc1cc(F)ccc1C#N)c1ccccc1 (mixture of isomers) [compound 287]
[1]
  Test A disease control rating (100 = 100% disease control, 0 = no disease control): 0%
Phytophthora infestans
  Test D disease control rating (100 = 100% disease control, 0 = no disease control): 23%
Botrytis cinerea
  Test E disease control rating (100 = 100% disease control, 0 = no disease control): 0%
Puccinia recondita
  Test B disease control rating (100 = 100% disease control, 0 = no disease control): 0%
Pyricularia oryzae
  Test C disease control rating (100 = 100% disease control, 0 = no disease control): 97%

## CC(C(C#N)C(=O)NCC=Cc1cccc(Br)c1)C(C)(C)C (mixture of isomers) [compound 76]
[1]; tested at 40 ppm
  Test A disease control rating: 0%
Phytophthora infestans; tested at 40 ppm
  Test D disease control rating: 19%
Botrytis cinerea; tested at 40 ppm
  Test E disease control rating: 0%
Puccinia recondita; tested at 40 ppm
  Test B disease control rating: 0%
Pyricularia oryzae; tested at 40 ppm
  Test C disease control rating: 0%

## C#Cc1ccccc1OCC(C)NC(=O)C(C#N)C(C)(C)C (mixture of isomers) [compound 216]
[1]
  Test A disease control rating (100 = 100% disease control, 0 = no disease control): 0%
Phytophthora infestans
  Test D disease control rating (100 = 100% disease control, 0 = no disease control): 9%
Botrytis cinerea
  Test E disease control rating (100 = 100% disease control, 0 = no disease control): 45%
Puccinia recondita
  Test B disease control rating (100 = 100% disease control, 0 = no disease control): 0%
Pyricularia oryzae
  Test C disease control rating (100 = 100% disease control, 0 = no disease control): 99%

## CCC1(C(=O)NC(C)COc2cccc(F)c2)C(C)C1(Cl)Cl (mixture of isomers) [79a]
[1]; tested at 40 ppm
  Test A disease control rating: 0%
Phytophthora infestans; tested at 40 ppm
  Test D disease control rating: 0%
Botrytis cinerea; tested at 40 ppm
  Test E disease control rating: 0%
Puccinia recondita; tested at 40 ppm
  Test B disease control rating: 0%
Pyricularia oryzae; tested at 40 ppm
  Test C disease control rating: 53%

## CC(C=Cc1ccc(F)cc1F)NC(=O)C(C#N)C(C)(C)C (mixture of isomers) [compound 309]
[1]
  Test A disease control rating (100 = 100% disease control, 0 = no disease control): 86%
Phytophthora infestans
  Test D disease control rating (100 = 100% disease control, 0 = no disease control): 23%
Botrytis cinerea
  Test E disease control rating (100 = 100% disease control, 0 = no disease control): 0%
Puccinia recondita
  Test B disease control rating (100 = 100% disease control, 0 = no disease control): 0%
Pyricularia oryzae
  Test C disease control rating (100 = 100% disease control, 0 = no disease control): 91%

## C#CC(C)(C)C(C#N)C(=O)NC(C)COc1cc(C)ccc1Cl (mixture of isomers) [compound 213]
[1]; [2]
  Test A disease control rating: 63%
Phytophthora infestans; [3]
  Test D disease control rating: 62%
Botrytis cinerea; [3]
  Test E disease control rating: 0%
Puccinia recondita; [3]
  Test B disease control rating: 0%
Pyricularia oryzae; [3]
  Test C disease control rating: 99%

## CCC1(C(=O)NC(C)COc2ccc(Br)cc2)C(C)C1(Cl)Cl (mixture of isomers) [86a]
[1]; tested at 40 ppm
  Test A disease control rating: 0%
Phytophthora infestans; tested at 40 ppm
  Test D disease control rating: 0%
Botrytis cinerea; tested at 40 ppm
  Test E disease control rating: 0%
Puccinia recondita; tested at 40 ppm
  Test B disease control rating: 67%
Pyricularia oryzae; tested at 40 ppm
  Test C disease control rating: 0%

## CC(COc1c(C#N)cccc1C(F)(F)F)NC(=O)C(C#N)C(C)(C)C (mixture of isomers) [compound 48]
[1]; [2]
  Test A disease control rating: 0%
Phytophthora infestans; [3]
  Test D disease control rating: 0%
Botrytis cinerea; [3]
  Test E disease control rating: 0%
Puccinia recondita; [3]
  Test B disease control rating: 0%
Pyricularia oryzae; [3]
  Test C disease control rating: 91%

## C[C@H](COc1cc(Cl)cc(Cl)c1)NC(=O)C(C#N)C(C)(C)C (single isomer, unassigned) [35a]
[1]; [2]
  Test A disease control rating: 0%
Phytophthora infestans; [3]
  Test D disease control rating: 80%
Botrytis cinerea; [3]
  Test E disease control rating: 0%
Puccinia recondita; [3]
  Test B disease control rating: 0%
Pyricularia oryzae; [3]
  Test C disease control rating: 74%

## CC(COc1ccccc1)NC(=O)C1(C)CC1(Cl)Cl (mixture of isomers) [compound 311]
[1]
  Test A disease control rating (100 = 100% disease control, 0 = no disease control): 84%
Phytophthora infestans
  Test D disease control rating (100 = 100% disease control, 0 = no disease control): 0%
Botrytis cinerea
  Test E disease control rating (100 = 100% disease control, 0 = no disease control): 0%
Puccinia recondita
  Test B disease control rating (100 = 100% disease control, 0 = no disease control): 0%
Pyricularia oryzae
  Test C disease control rating (100 = 100% disease control, 0 = no disease control): 0%

## C=CCC(C#N)C(=O)NC(C)C(Oc1cc(F)ccc1F)c1ccccc1 (mixture of isomers) [compound 283]
[1]
  Test A disease control rating (100 = 100% disease control, 0 = no disease control): 0%
Phytophthora infestans
  Test D disease control rating (100 = 100% disease control, 0 = no disease control): 0%
Botrytis cinerea
  Test E disease control rating (100 = 100% disease control, 0 = no disease control): 0%
Puccinia recondita
  Test B disease control rating (100 = 100% disease control, 0 = no disease control): 0%
Pyricularia oryzae
  Test C disease control rating (100 = 100% disease control, 0 = no disease control): 99%

Reference: patent US6642392B1 (priority 1997, dated 2003)
